Test results: patent US11306078B2, “Piperidine CXCR7 receptor modulators” (IDORSIA PHARMACEUTICALS LTD., priority 2016, dated 2022)

target: human chemokine receptor CXCR7 (Homo sapiens (Human), UniProt P25106); experiment: Tango CXCR7-bla U2OS beta-arrestin recruitment assay (beta-lactamase reporter, FRET), antagonism of CXCL12/SDF1-α; assay type: cell-based; settings: antagonistic effect on CXCR7; Tango CXCR7-bla U2OS cells, CXCL12/SDF1-α at its EC80;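 further: compounds preincubated 15 min before CXCL12 addition, then 22 h at 37 °C, FRET emission ratio read with CCF4-AM substrate after 2 h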
Sequence (P25106 whole entry): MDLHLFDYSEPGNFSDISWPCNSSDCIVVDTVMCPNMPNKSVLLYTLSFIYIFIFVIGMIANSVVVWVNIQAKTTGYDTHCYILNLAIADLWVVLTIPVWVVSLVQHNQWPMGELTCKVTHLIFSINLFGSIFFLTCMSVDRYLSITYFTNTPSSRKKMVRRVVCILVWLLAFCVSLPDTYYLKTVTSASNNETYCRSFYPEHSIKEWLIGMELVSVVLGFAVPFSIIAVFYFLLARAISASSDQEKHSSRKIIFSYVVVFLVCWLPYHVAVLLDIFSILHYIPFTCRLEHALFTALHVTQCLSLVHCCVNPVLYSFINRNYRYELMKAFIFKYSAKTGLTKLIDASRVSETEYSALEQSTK

Row | SMILES | IC50 [nM]
1 | C[C@@H](NC(=O)[C@@H]1CN(C2CCCC2)CC[C@H]1NC(=O)c1cc(-c2c(F)cc(F)cc2F)on1)c1ccccn1 (relative stereo) [Example 1.122, (3R*,4R*)-1-Cyclopentyl-4-{[5-(2,4,6-trifluoro-phenyl)-isoxazole-3-carbonyl]-amino}-piperidine-3-carboxylic acid ((R)-1-pyridin-2-yl-ethyl)-amide] | 10
2 | C[C@@H](NC(=O)[C@@H]1CN(CC2CC2)CC[C@H]1NC(=O)c1cc(-c2c(F)cc(F)cc2F)on1)c1ccccn1 (relative stereo) [Example 1.123, (3R*,4R*)-1-Cyclopropylmethyl-4-{[5-(2,4,6-trifluoro-phenyl)-isoxazole-3-carbonyl]-amino}-piperidine-3-carboxylic acid ((R)-1-pyridin-2-yl-ethyl)-amide] | 15
3 | C[C@@H]1CCC[C@H]1N1CC[C@@H](NC(=O)c2cc(-c3c(F)cc(F)cc3F)on2)[C@H](C(=O)N[C@H](C)c2ccccn2)C1 (relative stereo) [Example 1.124, (3R*,4R*)-1-((1RS,2RS)-2-Methyl-cyclopentyl)-4-{[5-(2,4,6-trifluoro-phenyl)-isoxazole-3-carbonyl]-amino}-piperidine-3-carboxylic acid ((R)-1-pyridin-2-yl-ethyl)-amide] | 16
4 | C[C@@H](NC(=O)[C@@H]1CN(C2CCCCC2)CC[C@H]1NC(=O)c1cc(-c2ccc(F)cc2F)no1)c1ccccn1 (relative stereo) [Example 1.125, (3R*,4R*)-1-Cyclohexyl-4-{[3-(2,4-difluoro-phenyl)-isoxazole-5-carbonyl]-amino}-piperidine-3-carboxylic acid ((R)-1-pyridin-2-yl-ethyl)-amide] | 81
5 | C[C@@H](NC(=O)[C@@H]1CN(C2CCCC2)CC[C@H]1NC(=O)c1cc(-c2ccc(F)cc2F)no1)c1ccccn1 (relative stereo) [Example 1.126, (3R*,4R*)-1-Cyclopentyl-4-{[3-(2,4-difluoro-phenyl)-isoxazole-5-carbonyl]-amino}-piperidine-3-carboxylic acid ((R)-1-pyridin-2-yl-ethyl)-amide] | 49

Further lines, results first:

Row | IC50 [nM] | SMILES
6 | 360 | C[C@@H](NC(=O)[C@@H]1CN(C2CCCCC2)CC[C@H]1NC(=O)c1cn(-c2ccc(F)cc2F)nn1)c1cnccn1 (relative stereo) [Example 1.127, (3R*,4R*)-1-Cyclohexyl-4-{[1-(2,4-difluoro-phenyl)-1H-[1,2,3]triazole-4-carbonyl]-amino}-piperidine-3-carboxylic acid ((R)-1-pyrazin-2-yl-ethyl)-amide]
7 | 124 | C[C@@H](NC(=O)[C@@H]1CN(C2CCCC2)CC[C@H]1NC(=O)c1cn(-c2ccc(F)cc2F)nn1)c1cnccn1 (relative stereo) [Example 1.128, (3R*,4R*)-1-Cyclopentyl-4-{[1-(2,4-difluoro-phenyl)-1H-[1,2,3]triazole-4-carbonyl]-amino}-piperidine-3-carboxylic acid ((R)-1-pyrazin-2-yl-ethyl)-amide]
8 | 102 | C[C@@H](NC(=O)[C@@H]1CN(CC2CC2)CC[C@H]1NC(=O)c1cc(-c2c(F)cc(F)cc2F)on1)c1cnccn1 (relative stereo) [Example 1.131, (3R*,4R*)-1-Cyclopropylmethyl-4-{[5-(2,4,6-trifluoro-phenyl)-isoxazole-3-carbonyl]-amino}-piperidine-3-carboxylic acid ((R)-1-pyrazin-2-yl-ethyl)-amide]
9 | 410 | C[C@@H]1CCC[C@H]1N1CC[C@@H](NC(=O)c2cc(-c3c(F)cc(F)cc3F)on2)[C@H](C(=O)N[C@H](C)c2cnccn2)C1 (relative stereo) [Example 1.132, (3R*,4R*)-1-((1RS,2RS)-2-Methyl-cyclopentyl)-4-{[5-(2,4,6-trifluoro-phenyl)-isoxazole-3-carbonyl]-amino}-piperidine-3-carboxylic acid ((R)-1-pyrazin-2-yl-ethyl)-amide]
